Assay results: PMC4167698, “Fatty Acid Esters of Phloridzin Induce Apoptosis of Human Liver Cancer Cells through Altered Gene Expression” (PLoS ONE, 2014)

Columns and labels:
HepG2 cells [1] = experiment: LDH release cytotoxicity assay; assay type: cell-based, human; conditions: HepG2, 100 µM, 6 h, relative to maximum release by 1% Triton X-100
Experimental: Lactate dehydrogenase (LDH) is a stable cytosolic enzyme that is released upon membrane damage in apoptotic/necrotic cells. LDH activity was measured using CytoTox 96 Non-Radioactive Cytotoxicity Assay (Promega, Madison, WI, USA), in which LDH released in culture supernatants is measured with a coupled enzymatic assay, resulting in conversion of a tetrazolium salt into a red formazan product. […] After centrifugation, the supernatant was removed to an assay plate, and the LDH released from the cells into culture medium was measured. The maximal release was obtained after treating control cells with 1% Triton X-100 for 30 min at room temperature. The apoptotic/necrotic percentage was expressed using the formula: (sample value/maximal release)×100%.

HepG2 cells [2] = experiment: DNA fragmentation (apoptotic DNA ladder); assay type: cell-based, human; conditions: HepG2, 100 µM, 24 h, agarose gel
Experimental: HepG2 (1×10^5) cells were seeded in 24-well culture plates and were allowed to adhere overnight. […] The plates were re-incubated for another 24 h. DNA fragmentation was detected using ApoTarget Quick Apoptotic DNA Ladder Detection Kit (Invitrogen, Burlington, ON, Canada) according to the manufacturer’s protocol. The principle involves detecting the internucleosomal DNA fragments formed during apoptosis. Briefly, floating dead cells and trypsinized adherent cells were collected and centrifuged at 1,000 rpm for 10 min. After washing with diluted phosphate buffered saline, the cells were lysed with 35 µL TE lysis buffer (a kit component). To the lysate, 5 µL of Enzyme A (a kit component) was added and incubated at 37°C for 10 min. Afterwards, 5 µL of Enzyme B (a kit component) was added, gently mixed and incubated at 50°C for 30 min. The DNA was precipitated with the ammonium acetate and absolute ethanol at −20°C. After centrifugation (10 min at 12,000 rpm) and air drying, the DNA pellet was dissolved in 30 µL of DNA suspension buffer. For detecting the DNA ladder, the extracted DNA samples were run on a 1.2% agarose gel containing 0.5 µg/mL gel red in Tris-Borate-EDTA (TBE) buffer. After electrophoresis, the gel image was captured using Gel Doc 100 system (Bio-Rad, Mississauga, ON, Canada).

HepG2 cells [3] = experiment: Mitochondrial membrane potential (JC-1); assay type: cell-based, human; conditions: HepG2, 100 µM, 24 h
Experimental: HepG2 cells were seeded in a black walled clear bottom 96-well sterile flat bottom tissue culture plates (BD Biosciences, USA) at a density of 5×10^4 cells/well (100 µL) and incubated in a CO2 incubator for 24 h at 37°C. […] The staining solution JC-1 was prepared with PBS and 5 µM was added to each well. The cells were further incubated in a CO2 incubator at 37°C for 1 h. After washing the plate with PBS twice, the fluorescence was measured using a Fluostar Optima microplate reader (BMG Labtech) at 535 nm for JC-1 monomers and at 590 nm for JC-1 aggregates.

[4] = tested on: LNCaP prostate cancer cells; parameters: method as in PMID 20714300; conditions: 100 µM; cited from earlier work
DNA topo IIα = tested on: DNA topo IIα; parameters: method as in PMID 7769390; conditions: cited from earlier work
[5] = tested on: normal human hepatocytes (HP-F); experiment: MTS cell viability assay, normal human hepatocytes; assay type: cell-based; conditions: Hepatocyte, 24 h
Experimental: Cell viability was determined by using the MTS assay. In brief, HepG2 cells (5×10^3 cells/100 µL/well), MDA-MB-231 (5×10^3 cells/100 µL/well), THP-1 (25×10^3/100 µL/well), normal human and rat hepatocytes (1×10^4 cells/100 µL/well) were plated in triplicate, in a 96 well sterile flat bottom tissue culture plates. […] Thereby, cells were exposed to various concentrations (0.1, 1, 10, 25, 50, 75, 100 µM) of each treatment. Controls consist of cells with media containing DMSO (<0.5%), test blank wells contained the test compound in media with no cells and blank wells contained media with no cells. After additional 3, 6, 12, 18 or 24 h, 20 µL of the MTS reagent in combination with the electron coupling agent, phenazine methosulfate were added to the wells and cells were incubated in a humidified incubator for 3 h. Absorbance at 490 nm (OD490) was measured by using a Flurostar Optima microplate reader (BMG Labtech, Cary, NC, USA) to obtain the number of viable cells relative to the control population. Percentage of viability of the test compound treated cells are expressed as percentage compared to control (<0.5% DMSO). […] The selective index (SI) of the fatty acid esters of phloridzin is defined as the ratio of cytotoxicity (EC50 values) on normal HP-F cells to solid cancer HepG2, MDA-MB-231 cells (SI = EC50 on HP-F cells/EC50 on solid cancer cells). Samples with SI values greater than three were considered to have high selectivity towards cancer cells.

HepG2 cells [6] = experiment: Morphologic observation under inverted phase contrast microscope; assay type: cell-based, human; conditions: HepG2, 100 µM, 24 h
Experimental: After 24 h of treatment, the morphology of HepG2 cells was observed under an inverted phase contrast microscope (Nikon Eclipse E 100, Nikon, Mississauga, ON, Canada) and were captured at 400X magnification using Infinity digital microscopy camera (Lumenera corporation, Ottawa, ON, Canada).

[7] = glycosylation at 2-OH; cited from earlier work
B16 mouse melanoma cells = tested on: B16 mouse melanoma cells; parameters: method as in PMID 17827407; conditions: antitumor activity study of apple polyphenols; cited from earlier work
[8] = tested on: BALB-MC.E12 mouse mammary tumor cells; parameters: method as in PMID 17827407; conditions: antitumor activity study of apple polyphenols; cited from earlier work

Structure (SMILES): O=C(CCc1ccc(O)cc1)c1c(O)cc(O)cc1O [Phloretin]
- LDH release (HepG2 cells [1]): 7.9±0.5%
- internucleosomal DNA fragmentation (HepG2 cells [2]): only intact genomic DNA
- mitochondrial membrane potential (HepG2 cells [3]): significant (P<0.05) reduction
- TRAIL-induced apoptosis and cytotoxicity [4]: augmented
- DNA topo IIα unknotting activity (DNA topo IIα): inhibit DNA topo IIα unknotting activity

Structure (SMILES): O=C(CCc1ccc(O)cc1)c1c(O)cc(O)cc1O[C@@H]1O[C@H](CO)[C@@H](O)[C@H](O)[C@H]1O [Phloridzin, phloretin 2′-O-glucoside]
- EC50 [5]: > 100 µM
- apoptotic morphological changes (HepG2 cells [6]): no effect
- internucleosomal DNA fragmentation (HepG2 cells [2]): only intact genomic DNA
- decrease of antioxidant activities in comparison to phloretin [7]: 18 times
- proliferation of transplanted B16 mouse melanoma cells (B16 mouse melanoma cells): did not affect the proliferation
- proliferation of BALB-MC.E12 mouse mammary tumor cells [8]: did not affect the proliferation
